From US8734796B2, “Carrier immunoglobulins” (Amgen Inc., priority 2009, dated 2014)
No end group written: not given here.

Experiments:
[1] = system: thapsigargin-induced IL-2 secretion from T cells in human whole blood; assay: Human whole blood ex vivo assay, IL-2 secretion; type: cell-based; conditions: for IC50: 50% human whole blood, thapsigargin stimulus, 48 hours, read-out: WB (IL-2) IC50
[2] = system: thapsigargin-induced IFN-g secretion from T cells in human whole blood; assay: Human whole blood ex vivo assay, IFN-g secretion; type: cell-based; conditions: 50% human whole blood, thapsigargin stimulus, 48 hours; read-out: WB (IFNg) IC50
human Kv1.3 = human Kv1.3 (Homo sapiens, UniProt P22001); assay: Whole cell patch clamp electrophysiology, Kv1.3
cloned hKv1.5 = cloned hKv1.5 (Homo sapiens, UniProt P22460); assay: FASTPatch PatchXpress counterscreen, hKv1.5; type: cell-based; conditions: positive control, 2 mM
[3] = reported by C. Beeton et al., PNAS 98:13942 (2001); cited from earlier work
cloned hKv4.3 = target: T1, cloned hKv4.3 (Homo sapiens, UniProt Q9UK17); assay: FASTPatch PatchXpress counterscreen, hKv4.3; type: cell-based; conditions: positive control, 0.1 mM
T1 sequence (Q9UK17 1-655): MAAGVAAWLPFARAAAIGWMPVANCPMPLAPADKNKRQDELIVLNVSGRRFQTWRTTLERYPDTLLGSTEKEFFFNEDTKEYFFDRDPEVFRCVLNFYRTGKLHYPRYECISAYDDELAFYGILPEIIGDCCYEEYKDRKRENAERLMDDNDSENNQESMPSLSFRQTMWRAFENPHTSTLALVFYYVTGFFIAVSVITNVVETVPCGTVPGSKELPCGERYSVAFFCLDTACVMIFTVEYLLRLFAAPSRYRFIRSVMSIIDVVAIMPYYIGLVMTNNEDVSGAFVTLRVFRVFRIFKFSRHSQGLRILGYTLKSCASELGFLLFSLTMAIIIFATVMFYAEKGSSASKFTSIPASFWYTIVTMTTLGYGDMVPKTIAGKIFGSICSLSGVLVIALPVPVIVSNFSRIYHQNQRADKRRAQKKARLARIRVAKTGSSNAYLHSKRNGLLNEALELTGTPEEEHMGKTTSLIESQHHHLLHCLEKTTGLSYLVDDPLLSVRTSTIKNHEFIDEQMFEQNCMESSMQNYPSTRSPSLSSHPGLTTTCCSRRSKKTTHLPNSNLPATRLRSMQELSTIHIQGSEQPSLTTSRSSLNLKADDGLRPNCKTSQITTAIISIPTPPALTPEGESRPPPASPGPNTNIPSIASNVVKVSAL

DNP(31)-BSA = target: T2, DNP(31)-BSA (Bos taurus, UniProt P02769); assay: BIAcore binding assay, DNP(31)-BSA; conditions: apparent
T2 construct: purchased Biosearch Technologies, Inc. (Novato, Calif.)
Description: Materials. Purified anti-DNP antibodies from either hybridoma (3A1, 3C2, 3A4 and 3B1) or recombinant CHO (3A4-F-G2 and 3B1-G2) expression were tested. Anti-human IgG, Fcγ-specific antibody was from Jackson ImmunoResearch Laboratories, Inc. (West Grove, Pa.). DNP-BSA (2,4-dinitrophenol conjugated to bovine serum albumin) was from Biosearch Technologies, Inc. (Novato, Calif.). BIACore 2000, research grade sensor chip CM5, surfactant P-20 (polyoxyethylenesorbitan), HBS-EP (10 mM HEPES, 0.15M NaCl, 3.4 mM EDTA, 0.005% P-20, pH 7.4), amine coupling reagents, 10 mM acetate pH 4.0 and 10 mM glycine, pH 1.5 were from BIACore, Inc. (Piscataway, N.J.). Phosphate-buffered saline (PBS, 1×, no calcium chloride, no magnesium chloride) was from Invitrogen (Carlsbad, Calif.). Bovine serum albumin (BSA, fraction V, IgG free) was from Sigma (St. Louis, Mo.).
Methods. BIAcore® analyses were carried out as follows. Immobilization of anti-human IgG, Fcγ-specific antibody to the CM5 sensor chip surface was performed according to manufacturer's instructions, using a continuous flow of 10 mM HEPES, 0.15M NaCl, 3.4 mM EDTA, 0.005% P-20, pH 7.4 (HBS-EP buffer). Briefly, carboxyl groups on the sensor chip surfaces were activated by injecting 60 μL of a mixture containing 0.2 M 1-ethyl-3-[3-dimethylaminopropyl]carbodiimide hydrochloride (EDC) and 0.05 M N-hydroxysuccinimide (NHS). Specific surfaces were obtained by injecting 180 μL of anti-human IgG, Fcγ-specific antibody diluted in 10 mM acetate buffer (for assay of aKLH antibodies: pH 4.5 at a concentration of 30 μg/mL; for assay of aDNP antibodies: pH 4.0 at a concentration of 60 μg/mL). Excess reactive groups on the surfaces were deactivated by injecting 60 μL of 1 M ethanolamine. Final immobilized levels were about 9,000 (for assay of aKLH antibodies) or about 10,000 (for assay of aDNP antibodies) resonance units (RU). A blank, mock-coupled reference surface was also prepared on the sensor chip. Antibodies and antigen were diluted in sample buffer consisting of PBS+0.005% P-20+0.1 mg/mL BSA. […]

T2 sequence (P02769 25-607): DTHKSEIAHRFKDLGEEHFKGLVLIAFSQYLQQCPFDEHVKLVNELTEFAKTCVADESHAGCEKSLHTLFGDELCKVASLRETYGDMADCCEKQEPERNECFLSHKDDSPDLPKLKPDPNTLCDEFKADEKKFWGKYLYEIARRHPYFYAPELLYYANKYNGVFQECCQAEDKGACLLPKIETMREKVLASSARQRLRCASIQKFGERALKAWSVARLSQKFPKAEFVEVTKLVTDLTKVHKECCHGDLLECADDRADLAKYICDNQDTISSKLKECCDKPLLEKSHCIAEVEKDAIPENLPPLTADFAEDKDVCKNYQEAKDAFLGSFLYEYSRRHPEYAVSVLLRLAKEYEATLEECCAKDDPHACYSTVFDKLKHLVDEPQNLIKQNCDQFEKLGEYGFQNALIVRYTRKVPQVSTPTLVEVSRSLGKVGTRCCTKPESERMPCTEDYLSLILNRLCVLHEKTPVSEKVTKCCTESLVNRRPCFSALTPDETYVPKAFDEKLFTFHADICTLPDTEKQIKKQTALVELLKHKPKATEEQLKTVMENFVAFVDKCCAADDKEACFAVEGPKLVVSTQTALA
human Kv1.3, sequence (P22001 whole entry): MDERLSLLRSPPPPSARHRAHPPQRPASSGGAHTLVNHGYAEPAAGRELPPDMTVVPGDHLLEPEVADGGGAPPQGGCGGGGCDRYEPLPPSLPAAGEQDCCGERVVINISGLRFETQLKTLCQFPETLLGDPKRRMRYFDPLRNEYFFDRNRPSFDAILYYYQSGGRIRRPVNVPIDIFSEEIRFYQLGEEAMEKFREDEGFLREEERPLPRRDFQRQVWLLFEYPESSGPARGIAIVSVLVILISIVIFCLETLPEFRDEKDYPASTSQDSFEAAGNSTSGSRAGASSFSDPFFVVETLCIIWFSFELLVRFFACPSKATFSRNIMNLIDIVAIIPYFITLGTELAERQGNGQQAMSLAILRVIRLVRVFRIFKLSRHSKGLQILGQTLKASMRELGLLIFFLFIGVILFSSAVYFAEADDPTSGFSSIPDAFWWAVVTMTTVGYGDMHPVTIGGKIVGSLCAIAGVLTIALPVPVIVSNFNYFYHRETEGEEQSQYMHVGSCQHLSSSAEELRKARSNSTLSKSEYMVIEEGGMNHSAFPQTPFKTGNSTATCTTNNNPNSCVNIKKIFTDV
cloned hKv1.5, sequence (P22460 whole entry): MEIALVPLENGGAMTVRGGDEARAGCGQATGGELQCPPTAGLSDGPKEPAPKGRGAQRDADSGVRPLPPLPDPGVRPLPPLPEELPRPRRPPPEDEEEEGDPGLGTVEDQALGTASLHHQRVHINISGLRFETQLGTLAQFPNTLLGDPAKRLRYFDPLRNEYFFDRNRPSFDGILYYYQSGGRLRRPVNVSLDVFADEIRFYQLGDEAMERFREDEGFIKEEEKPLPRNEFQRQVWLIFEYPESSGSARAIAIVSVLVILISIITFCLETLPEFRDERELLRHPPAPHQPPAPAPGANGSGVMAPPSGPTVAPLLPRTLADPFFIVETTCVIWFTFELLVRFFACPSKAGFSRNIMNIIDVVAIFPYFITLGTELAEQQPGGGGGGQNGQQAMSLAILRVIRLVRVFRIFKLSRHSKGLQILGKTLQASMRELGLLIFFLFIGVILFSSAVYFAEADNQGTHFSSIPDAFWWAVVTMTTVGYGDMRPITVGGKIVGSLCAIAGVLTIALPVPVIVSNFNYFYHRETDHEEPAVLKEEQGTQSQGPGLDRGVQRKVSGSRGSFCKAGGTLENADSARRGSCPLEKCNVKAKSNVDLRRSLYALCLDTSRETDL

Molecule: Bivalent Fc-L10-ShK[1-35] homodimer: IgG1 Fc-L10-ShK(1-35) peptibody homodimer, Example 1 of WO2008/088422A2 (GGGGSGGGGSRSCIDTIPKSRCTAFQCKHSMKYRLSFCRKTCGTC; not fully specified (N-terminus); ends and bridges not checked; also: homodimer via Fc) [reference compound]
- IC50 [1]: 0.386 nM
- IC50 [2]: 0.32 nM
- greater Kv1.3 activity compared to the bivalent Fc-L10-ShK(2-35) molecule (human Kv1.3; whole cell patch clamp electrophysiology): about 8 fold

Molecule: Nc1ccncc1 [4-aminopyridine]
- block of the hKv1.5 current (cloned hKv1.5): about 80%

Molecule: Bivalent Fc-L10-ShK[2-35] homodimer: IgG1 Fc-L10-ShK(2-35) peptibody homodimer, Example 2 of WO2008/088422A2 (GGGGSGGGGSSCIDTIPKSRCTAFQCKHSMKYRLSFCRKTCGTC; not fully specified (N-terminus); ends and bridges not checked; also: homodimer via Fc) [reference compound]
- IC50 [1]: 0.585 nM
- Potency Relative to ShK (WB, IL2) ([1]; ratio of WB IL-2 IC50 to that of ShK(1-35)): 8.73
- IC50 [2]: 2.29 nM
- Kv1.1/Kv1.3 Selectivity Ratio (of asterisked IC50 values) (human Kv1.3; IC50 values from whole cell patch clamp): 3.54

Molecule: CC[C@H](C)[C@@H]1NC(=O)[C@@H](NC(=O)[C@H](CO)NC(=O)[C@@H](N)CCCNC(=N)N)CSSC[C@@H](C(=O)O)NC(=O)[C@H]([C@@H](C)O)NC(=O)CNC(=O)[C@@H]2CSSC[C@@H]3NC(=O)[C@H](CCC(N)=O)NC(=O)[C@H](Cc4ccccc4)NC(=O)[C@H](C)NC(=O)[C@H]([C@@H](C)O)NC(=O)[C@H](CSSC[C@H](NC(=O)[C@H](Cc4ccccc4)NC(=O)[C@H](CO)NC(=O)[C@H](CC(C)C)NC(=O)[C@H](CCCNC(=N)N)NC(=O)[C@H](Cc4ccc(O)cc4)NC(=O)[C@H](CCCCN)NC(=O)[C@H](CCSC)NC(=O)[C@H](CO)NC(=O)[C@H](Cc4cnc[nH]4)NC(=O)[C@H](CCCCN)NC3=O)C(=O)N[C@@H](CCCNC(=N)N)C(=O)N[C@@H](CCCCN)C(=O)N[C@@H]([C@@H](C)O)C(=O)N2)NC(=O)[C@H](CCCNC(=N)N)NC(=O)[C@H](CO)NC(=O)[C@H](CCCCN)NC(=O)[C@@H]2CCCN2C(=O)[C@H]([C@@H](C)CC)NC(=O)[C@H]([C@@H](C)O)NC(=O)[C@H](CC(=O)O)NC1=O [ShK(1-35), ShK]
- half-life [3]: 20 to 30 min

Molecule: 20 kDa-PEG-ShK: SEQ ID NO:363; ShK PEGylated at its N-terminus with 20 kDa PEG [reference compound]
- IC50 [1]: 0.38 nM
- IC50 [2]: 0.84 nM

Molecule: O=C(NCC1CCCCN1)c1cc(OCC(F)(F)F)ccc1OCC(F)(F)F (stereo not drawn) [flecamide]
- inhibition of the hKv4.3 current (cloned hKv4.3): about 75%

B1: 3B1-G2: recombinant IgG2 form of anti-DNP antibody 3B1 (protein)
light: DIQMTQSPSSLSASEGDRVTITCRASQGIRNDLGWYQQKPGKAPKRLIYAASSLQSGVPLRFSGSGSGTEFTLTISSLQPEDFATYYCLQYNSYPWTFGQGTKVEIKRTVAAPSVFIFPPSDEQLKSGTASVVCLLNNFYPREAKVQWKVDNALQSGNSQESVTEQDSKDSTYSLSSTLTLSKADYEKHKVYACEVTHQGLSSPVTKSFNRGEC
heavy: QVQLQESGPGLVKPSETLSLTCTVSGGSISSYYWSWIRQPPGKGLEWIGYIYYSGNTNSNPSLKSRVTISVDTSKNQFSLKLSSVTAADTAVYYCARTYYDSSGYYYRAFDIWGQGTMVTVSSASTKGPSVFPLAPCSRSTSESTAALGCLVKDYFPEPVTVSWNSGALTSGVHTFPAVLQSSGLYSLSSVVTVPSSNFGTQTYTCNVDHKPSNTKVDKTVERKCCVECPPCPAPPVAGPSVFLFPPKPKDTLMISRTPEVTCVVVDVSHEDPEVQFNWYVDGVEVHNAKTKPREEQFNSTFRVVSVLTVVHQDWLNGKEYKCKVSNKGLPAPIEKTISKTKGQPREPQVYTLPPSREEMTKNQVSLTCLVKGFYPSDIAVEWESNGQPENNYKTTPPMLDSDGSFFLYSKLTVDKSRWQQGNVFSCSVMHEALHNHYTQKSLSLSPGK
- Kd (DNP(31)-BSA): 0.7 nM
- ka, Binding to DNP(31)-BSA (DNP(31)-BSA; ne(y) = n × 10^(y)): 420000 M⁻¹ s⁻¹
- kd, Binding to DNP(31)-BSA (DNP(31)-BSA; ne(y) = n × 10^(y)): 0.00031 s⁻¹
